The record followed here is US20240199722A1, “NANOPLATFORM FOR TARGETING MACROPHAGE AND COMPOSITION FOR PREVENTION OR TREATMENT OF METASTATIC CANCER” (SEOUL NATIONAL UNIVERSITY R&DB FOUNDATION, priority 2021, published 2024).

The assay deals with macrophages at lung metastatic site. As to the kind of experiment: Early diagnosis of cancer metastasis in the 4T1-luc model: FDG-PET versus 111In-MSA-FL SPECT/CT (FIG. 8). It is filed as in vivo, mouse. The text has this:
In order to verify the possibility of early diagnosis of cancer metastasis of the albumin-based nanoplatform conjugated with the mannosyl group, a model that may represent cancer metastasis was reproduced and confirmed through tissue staining whether it could actually reflect metastasis.
This animal model is known to naturally cause metastasis to secondary organs after transplanting cancer cells into mice, and is especially known to cause metastasis to the lung area, similar to the pattern of existing breast cancer.

In the case of `OC[C@H]1O[C@@H](O)[C@H]([18F])[C@@H](O)[C@@H]1O` [FDG], where the note is “day after modeling”, the “time at which cancer metastasis could be diagnosed” value was 28 days. Moreover, the “nuclear medicine signal/image in the lung area before metastasis” value (imaging on days 7, 14, 21, 28) was “could hardly be confirmed”. Further, under “quantification FIG. 8(b)”, the “uptake at the metastatic site, statistical significance” value is “statistically significant difference only on Day 28”.
